This note sets out measurements from patent US20240024488A1, “COMPOUNDS AND USES THEREOF” (Foghorn Therapeutics Inc., priority 2020, published 2024).

One test concerns the target T1, HiBit-BRM fusion protein (Homo sapiens, UniProt P51531).
T1 construct: expressed in transfected cells
The experiment in a line: HiBiT-BRM cell-based degradation assay (Nano-Glo HiBiT Lytic Detection, 24 h). Particulars: HeLa cell line expressing HiBiT-BRM; for DC50: read-out: BRM HiBit Degradation IC50. Here is the method: (§1) Procedure: A stable HeLa cell line expressing HiBiT-BRM was generated. On day 0, 5000 cells were seeded in 40 μL of media into each well of 384-well cell culture plates. On day 1, cells were treated with 120 nL DMSO or 120 nL of 3-fold serially DMSO-diluted compounds (10 points in duplicate with 30 μM as final top dose). Subsequently plates were incubated for 24 h in a standard tissue culture incubator and equilibrated at room temperature for 15 minutes. Nano-Glo HiBiT Lytic Detection System (Promega N3050) reagent was freshly prepared and 20 ul was added to each well. Upon addition of this LgBit-containing reagent, the HiBiT and LgBiT proteins associate to form the luminescent NanoBiT luciferase. The plates were shaken for 10 minutes at room temperature and the bioluminescence read using an EnVision plate reader (PerkinElmer).
(§2) The degradation % was calculated using the following formula: % degradation=100%−100%×(LumSample−LumLC)/(LumHC−LumLC). DMSO treated cells are employed as High Control (HC) and 2 μM of a known BRM/BRG1 degrader standard treated cells are employed as Low Control (LC).

Test [1] addresses T2, HiBit-BRG1 fusion protein (Homo sapiens, UniProt P51532).
T2 construct: expressed in transfected cells
The experiment in a line: HiBiT-BRG1 cell-based degradation assay (Nano-Glo HiBiT Lytic Detection, 24 h). Particulars: HeLa cell line expressing HiBit-BRG1 and LgBit; for Dmax: read-out: BRG1 HiBit Degradation Maximum (%); for DC50: read-out: BRMG1 HiBit Degradation IC50. Here is the method:
as §1, with “On day 1, cells were treated with 120 nL DMSO or 120 nL of 3-fold serially DMSO-diluted compounds (10 points in duplicate with 30 μM as final top dose).” left out
For measurement of BRG1 degradation, a stable HeLa cell line expressing HiBit-BRG1 and LgBit was generated. The same protocol as above was then followed.
as §2

T1 sequence (P51531 whole entry, the tested form may be a part): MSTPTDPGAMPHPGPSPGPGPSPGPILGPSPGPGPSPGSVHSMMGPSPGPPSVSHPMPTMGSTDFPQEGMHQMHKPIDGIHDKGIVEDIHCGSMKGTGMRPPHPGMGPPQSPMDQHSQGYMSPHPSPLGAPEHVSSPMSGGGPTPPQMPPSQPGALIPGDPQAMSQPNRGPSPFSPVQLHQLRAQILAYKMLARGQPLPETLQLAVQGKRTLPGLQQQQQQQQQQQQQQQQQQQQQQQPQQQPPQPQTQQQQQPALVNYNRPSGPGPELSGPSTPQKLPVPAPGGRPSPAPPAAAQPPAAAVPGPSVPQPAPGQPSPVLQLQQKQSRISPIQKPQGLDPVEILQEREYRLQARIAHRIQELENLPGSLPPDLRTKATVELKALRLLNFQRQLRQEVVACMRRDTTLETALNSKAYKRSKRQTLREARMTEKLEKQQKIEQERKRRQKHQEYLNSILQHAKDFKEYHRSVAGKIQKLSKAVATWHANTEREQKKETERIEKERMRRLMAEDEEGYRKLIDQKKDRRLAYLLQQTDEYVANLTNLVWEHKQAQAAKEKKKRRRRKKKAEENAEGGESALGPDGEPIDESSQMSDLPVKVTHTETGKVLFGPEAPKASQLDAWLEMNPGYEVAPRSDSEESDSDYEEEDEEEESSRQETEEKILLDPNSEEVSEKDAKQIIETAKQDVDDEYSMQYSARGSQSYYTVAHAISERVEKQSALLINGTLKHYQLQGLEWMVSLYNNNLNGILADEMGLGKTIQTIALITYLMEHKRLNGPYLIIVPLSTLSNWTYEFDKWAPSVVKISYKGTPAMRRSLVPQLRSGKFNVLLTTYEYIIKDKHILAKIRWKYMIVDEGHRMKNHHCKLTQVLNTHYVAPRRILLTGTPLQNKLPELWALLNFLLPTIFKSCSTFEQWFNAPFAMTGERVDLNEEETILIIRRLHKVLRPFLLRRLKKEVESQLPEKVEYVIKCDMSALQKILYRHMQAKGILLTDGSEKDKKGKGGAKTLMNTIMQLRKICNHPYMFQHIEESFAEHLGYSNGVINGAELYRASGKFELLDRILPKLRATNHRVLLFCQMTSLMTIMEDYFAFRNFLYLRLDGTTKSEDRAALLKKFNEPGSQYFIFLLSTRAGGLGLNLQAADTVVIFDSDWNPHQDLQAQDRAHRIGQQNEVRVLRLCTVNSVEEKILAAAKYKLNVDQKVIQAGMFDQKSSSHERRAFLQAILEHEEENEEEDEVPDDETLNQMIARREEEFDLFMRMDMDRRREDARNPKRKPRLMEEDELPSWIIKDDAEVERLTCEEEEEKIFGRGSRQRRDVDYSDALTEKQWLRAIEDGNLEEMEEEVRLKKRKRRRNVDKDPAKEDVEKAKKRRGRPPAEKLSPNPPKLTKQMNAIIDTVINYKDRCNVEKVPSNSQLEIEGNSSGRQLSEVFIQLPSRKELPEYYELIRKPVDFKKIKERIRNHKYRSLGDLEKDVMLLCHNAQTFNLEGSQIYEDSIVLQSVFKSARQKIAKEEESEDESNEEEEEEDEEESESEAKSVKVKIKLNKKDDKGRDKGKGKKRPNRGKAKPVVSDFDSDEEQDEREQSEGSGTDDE
T2 sequence (P51532 whole entry, the tested form may be a part): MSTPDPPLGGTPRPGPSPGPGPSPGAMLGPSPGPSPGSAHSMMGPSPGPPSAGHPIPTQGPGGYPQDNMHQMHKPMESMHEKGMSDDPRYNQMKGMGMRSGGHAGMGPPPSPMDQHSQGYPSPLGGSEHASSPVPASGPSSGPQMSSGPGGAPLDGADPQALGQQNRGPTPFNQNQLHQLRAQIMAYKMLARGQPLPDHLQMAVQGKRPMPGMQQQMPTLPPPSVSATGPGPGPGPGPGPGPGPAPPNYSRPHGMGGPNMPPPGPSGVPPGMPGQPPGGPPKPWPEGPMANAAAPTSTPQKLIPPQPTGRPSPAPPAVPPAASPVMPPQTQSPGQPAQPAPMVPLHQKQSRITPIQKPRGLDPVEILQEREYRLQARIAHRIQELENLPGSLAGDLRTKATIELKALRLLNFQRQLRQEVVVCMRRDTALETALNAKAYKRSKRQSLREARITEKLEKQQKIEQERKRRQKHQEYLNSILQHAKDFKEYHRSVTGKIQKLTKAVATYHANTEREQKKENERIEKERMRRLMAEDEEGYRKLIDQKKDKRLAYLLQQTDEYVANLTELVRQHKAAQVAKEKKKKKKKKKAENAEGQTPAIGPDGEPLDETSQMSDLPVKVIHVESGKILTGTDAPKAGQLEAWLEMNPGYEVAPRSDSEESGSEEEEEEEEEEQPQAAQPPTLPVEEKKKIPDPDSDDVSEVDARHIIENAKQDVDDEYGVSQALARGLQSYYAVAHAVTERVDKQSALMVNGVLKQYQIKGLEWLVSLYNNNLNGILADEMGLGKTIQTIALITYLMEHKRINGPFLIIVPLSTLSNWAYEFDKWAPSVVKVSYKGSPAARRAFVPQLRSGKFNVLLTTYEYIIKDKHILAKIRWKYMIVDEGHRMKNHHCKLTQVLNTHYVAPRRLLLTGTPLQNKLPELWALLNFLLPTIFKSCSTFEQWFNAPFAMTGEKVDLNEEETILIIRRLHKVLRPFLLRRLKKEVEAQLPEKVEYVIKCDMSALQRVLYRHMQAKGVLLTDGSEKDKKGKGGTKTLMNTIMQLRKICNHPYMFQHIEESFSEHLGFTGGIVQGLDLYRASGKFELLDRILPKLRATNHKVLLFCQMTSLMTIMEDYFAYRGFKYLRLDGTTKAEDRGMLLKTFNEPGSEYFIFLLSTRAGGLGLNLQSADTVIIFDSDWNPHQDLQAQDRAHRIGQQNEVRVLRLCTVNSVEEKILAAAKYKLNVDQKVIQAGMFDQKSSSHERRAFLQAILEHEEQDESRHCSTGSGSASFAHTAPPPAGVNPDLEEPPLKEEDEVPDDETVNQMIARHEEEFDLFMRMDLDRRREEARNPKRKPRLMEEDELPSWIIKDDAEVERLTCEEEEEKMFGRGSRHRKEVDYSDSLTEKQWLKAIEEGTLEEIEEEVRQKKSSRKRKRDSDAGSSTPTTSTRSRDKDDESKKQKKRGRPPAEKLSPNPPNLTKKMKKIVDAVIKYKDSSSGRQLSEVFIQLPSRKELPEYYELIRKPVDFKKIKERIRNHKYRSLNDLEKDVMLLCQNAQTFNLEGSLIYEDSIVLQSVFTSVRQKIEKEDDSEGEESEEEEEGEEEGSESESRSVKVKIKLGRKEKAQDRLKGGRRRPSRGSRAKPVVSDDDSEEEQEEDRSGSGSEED

On to `Cc1ncsc1-c1ccc([C@H](C)NC(=O)[C@@H]2C[C@@H](O)CN2C(=O)[C@@H](c2cc(N3CCC(N(C)[C@H]4CCc5[nH]c6nnc(-c7ccccc7O)cc6c5C4)CC3)no2)C(C)C)cc1` (racemic) [Compound 111, (2S,4R)-4-hydroxy-1-((R)-2-(3-(4-(((S)-3-(2-hydroxyphenyl)-6,7,8,9-tetrahydro-5H-pyridazino[3,4-b]indol-6-yl)(methyl)amino)piperidin-1-yl)isoxazol-5-yl)-3-methylbutanoyl)-N-((S)-1-(4-(4-methylthiazol-5-yl)phenyl)ethyl)pyrrolidine-2-carboxamide], for which, at HiBit-BRM fusion protein, the “BRM HiBit Degradation Maximum (%)” value is “A (“A” indicates maximum degradation ≥ 75%)” and the DC50 was more than 0.01 µM. Moreover, in test [1], the Dmax is more than 50% and the DC50 is more than 0.1 µM.
Take `Cc1ncsc1-c1ccc([C@H](C)NC(=O)[C@@H]2C[C@@H](O)CN2C(=O)[C@@H](c2cc(OCCNC(=O)[C@H]3C[C@@]4(Cc5cc(-c6ccccc6O)nnc5N4)C3)no2)C(C)C)cc1` (racemic) [Compound 70, (1R,3s)-N-(2-((5-((R)-1-((2S,4R)-4-hydroxy-2-(((S)-1-(4-(4-methylthiazol-5-yl)phenyl)ethyl)carbamoyl)pyrrolidin-1-yl)-3-methyl-1-oxobutan-2-yl)isoxazol-3-yl)oxy)ethyl)-3′-(2-hydroxyphenyl)-5′,7′-dihydrospiro[cyclobutane-1,6′-pyrrolo[2,3-c]pyridazine]-3-carboxamide]: on HiBit-BRM fusion protein, the “BRM HiBit Degradation Maximum (%)” value was “B (“B” indicates maximum degradation ≥ 50%)” and the DC50 was more than 0.1 µM. For the same compound, the Dmax in test [1] was less than 50%.
With `Cc1ncsc1-c1ccc(CNC(=O)[C@@H]2C[C@@H](O)CN2C(=O)[C@@H](NC(=O)CCCCCNC(=O)[C@@H]2CCc3[nH]c4nnc(-c5ccccc5O)cc4c3C2)C(C)(C)C)cc1` (racemic) [Compound 195, (R)-N-(6-(((S)-1-((2S,4R)-4-hydroxy-2-((4-(4-methylthiazol-5-yl)benzyl)carbamoyl)pyrrolidin-1-yl)-3,3-dimethyl-1-oxobutan-2-yl)amino)-6-oxohexyl)-3-(2-hydroxyphenyl)-6,7,8,9-tetrahydro-5H-pyridazino[3,4-b]indole-6-carboxamide], at HiBit-BRM fusion protein, the “BRM HiBit Degradation Maximum (%)” value is listed as “B (“B” indicates maximum degradation ≥ 50%)” and the DC50 is more than 0.1 µM. For the same compound, the Dmax in test [1] was less than 50%.
Turning to `Cc1ncsc1-c1ccc([C@H](C)NC(=O)[C@@H]2C[C@@H](O)CN2C(=O)[C@@H](c2cc(OCCCN3CC4(CC(c5c[nH]c6nnc(-c7ccccc7O)cc56)C4)C3)no2)C(C)C)cc1` (racemic) [Compound 211, (2S,4R)-4-hydroxy-1-((R)-2-(3-(3-(6-(3-(2-hydroxyphenyl)-7H-pyrrolo[2,3-c]pyridazin-5-yl)-2-azaspiro[3.3]heptan-2-yl)propoxy)isoxazol-5-yl)-3-methylbutanoyl)-N-((S)-1-(4-(4-methylthiazol-5-yl)phenyl)ethyl)pyrrolidine-2-carboxamide], on HiBit-BRM fusion protein, the “BRM HiBit Degradation Maximum (%)” value is “A (“A” indicates maximum degradation ≥ 75%)” and the DC50 was more than 0.01 µM. Besides, in test [1], the Dmax was more than 75% and the DC50 was more than 0.1 µM.
As for `Cc1ncsc1-c1ccc(CNC(=O)[C@@H]2C[C@@H](O)CN2C(=O)[C@@H](NC(=O)CCN2CC(c3c[nH]c4nnc(-c5ccccc5O)cc34)C2)C(C)(C)C)cc1` [Compound 35, (2S,4R)-4-hydroxy-1-((S)-2-(3-(3-(3-(2-hydroxyphenyl)-7H-pyrrolo[2,3-c]pyridazin-5-yl)azetidin-1-yl)propanamido)-3,3-dimethylbutanoyl)-N-(4-(4-methylthiazol-5-yl)benzyl)pyrrolidine-2-carboxamide], on HiBit-BRM fusion protein, the “BRM HiBit Degradation Maximum (%)” value was “C (“C” indicates maximum degradation < 50%)”. The Dmax in test [1] is less than 50%.
Take `Cc1ncsc1-c1ccc(CNC(=O)[C@@H]2C[C@@H](O)CN2C(=O)[C@H](c2cc(OCCN3CC(c4cc5cc(-c6ccccc6O)nnc5[nH]4)C3)no2)C(C)C)cc1` (single isomer, unassigned) [Compound 207]: on HiBit-BRM fusion protein, the “BRM HiBit Degradation Maximum (%)” value is on record as “C (“C” indicates maximum degradation < 50%)”. Also, in test [1], the Dmax was less than 50%.
For `Cc1ncsc1-c1ccc(CNC(=O)[C@@H]2C[C@@H](O)CN2C(=O)[C@@H](NC(=O)CCCCCCCCCCCCC(=O)N2CC(c3c[nH]c4nnc(-c5ccccc5O)cc34)C2)C(C)(C)C)cc1` [Compound 44, (2S,4R)-4-hydroxy-1-((S)-2-(14-(3-(3-(2-hydroxyphenyl)-7H-pyrrolo[2,3-c]pyridazin-5-yl)azetidin-1-yl)-14-oxotetradecanamido)-3,3-dimethylbutanoyl)-N-(4-(4-methylthiazol-5-yl)benzyl)pyrrolidine-2-carboxamide] the same measures were “C (“C” indicates maximum degradation < 50%)” and less than 50%.
With `Cc1ncsc1-c1ccc([C@H](C)NC(=O)[C@@H]2C[C@@H](O)CN2C(=O)[C@@H](c2cc(OCCN3CCC[C@H](c4cc5cc(-c6ccccc6O)nnc5[nH]4)C3)no2)C(C)C)cc1` (racemic) [Compound 278, (2S,4R)-4-hydroxy-1-((R)-2-(3-(2-((S)-3-(3-(2-hydroxyphenyl)-7H-pyrrolo[2,3-c]pyridazin-6-yl)piperidin-1-yl)ethoxy)isoxazol-5-yl)-3-methylbutanoyl)-N-((S)-1-(4-(4-methylthiazol-5-yl)phenyl)ethyl)pyrrolidine-2-carboxamide], on HiBit-BRM fusion protein, the “BRM HiBit Degradation Maximum (%)” value is “A (“A” indicates maximum degradation ≥ 75%)” and the DC50 was more than 0.01 µM. Moreover, in test [1], the Dmax was more than 50% and the DC50 is more than 0.01 µM.
For `Cc1ncsc1-c1ccc(CNC(=O)[C@@H]2C[C@@H](O)CN2C(=O)[C@@H](NC(=O)CCC(=O)NC23CC(c4cc5cc(-c6ccccc6O)nnc5[nH]4)(C2)C3)C(C)(C)C)cc1` (racemic) [Compound 298, N1-((S)-1-((2S,4R)-4-hydroxy-2-((4-(4-methylthiazol-5-yl)benzyl)carbamoyl)pyrrolidin-1-yl)-3,3-dimethyl-1-oxobutan-2-yl)-N4-(3-(3-(2-hydroxyphenyl)-7H-pyrrolo[2,3-c]pyridazin-6-yl)bicyclo[1.1.1]pentan-1-yl)succinamide], at HiBit-BRM fusion protein, the “BRM HiBit Degradation Maximum (%)” value is recorded as “C (“C” indicates maximum degradation < 50%)”. In test [1], the Dmax is less than 50%.
Consider `Cc1ncsc1-c1ccc([C@H](C)NC(=O)[C@@H]2C[C@@H](O)CN2C(=O)[C@@H](c2cc(N3CCC(C(=O)N[C@H]4CCc5[nH]c6nnc(-c7ccccc7O)cc6c5C4)CC3)no2)C(C)C)cc1` [Compound 144, 1-(5-((R)-1-((2S,4R)-4-hydroxy-2-(((S)-1-(4-(4-methylthiazol-5-yl)phenyl)ethyl)carbamoyl)pyrrolidin-1-yl)-3-methyl-1-oxobutan-2-yl)isoxazol-3-yl)-N-((S)-3-(2-hydroxyphenyl)-6,7,8,9-tetrahydro-5H-pyridazino[3,4-b]indol-6-yl)piperidine-4-carboxamide], for which, on HiBit-BRM fusion protein, the “BRM HiBit Degradation Maximum (%)” value is “A (“A” indicates maximum degradation ≥ 75%)” and the DC50 is more than 0.01 µM. Further, in test [1], the Dmax was more than 50% and the DC50 was more than 0.1 µM.
As to `Cc1ncsc1-c1ccc([C@H](C)NC(=O)[C@@H]2C[C@@H](O)CN2C(=O)[C@@H](c2cc(OCCN3C[C@@H]4[C@H](C3)[C@H]4c3cc4cc(-c5cc(F)ccc5O)nnc4[nH]3)no2)C(C)C)cc1` (racemic) [Compound 224, (2S,4R)-1-((R)-2-(3-(2-((1R,5S,6R)-6-(3-(5-fluoro-2-hydroxyphenyl)-7H-pyrrolo[2,3-c]pyridazin-6-yl)-3-azabicyclo[3.1.0]hexan-3-yl)ethoxy)isoxazol-5-yl)-3-methylbutanoyl)-4-hydroxy-N-((S)-1-(4-(4-methylthiazol-5-yl)phenyl)ethyl)pyrrolidine-2-carboxamide], on HiBit-BRM fusion protein, the “BRM HiBit Degradation Maximum (%)” value is “A (“A” indicates maximum degradation ≥ 75%)” and the DC50 is more than 0.01 µM. Also, in test [1], the Dmax is more than 50% and the DC50 is more than 1 µM.
Consider `Cc1ncsc1-c1ccc([C@H](C)NC(=O)[C@@H]2C[C@@H](O)CN2C(=O)[C@@H](c2cc(N3C[C@H]4C[C@@H]3CN4C(=O)[C@H]3C[C@@]4(Cc5cc(-c6ccccc6O)nnc5N4)C3)no2)C(C)C)cc1` (racemic) [Compound 79, (2S,4R)-4-hydroxy-1-((R)-2-(3-((1R,4R)-5-((1R,3s)-3′-(2-hydroxyphenyl)-5′,7′-dihydrospiro[cyclobutane-1,6′-pyrrolo[2,3-c]pyridazine]-3-carbonyl)-2,5-diazabicyclo[2.2.1]heptan-2-yl)isoxazol-5-yl)-3-methylbutanoyl)-N-((S)-1-(4-(4-methylthiazol-5-yl)phenyl)ethyl)pyrrolidine-2-carboxamide], for which, on HiBit-BRM fusion protein, the “BRM HiBit Degradation Maximum (%)” value is “C (“C” indicates maximum degradation < 50%)”. In test [1], the Dmax is less than 50%.
